We go through 32 molecules from US11319315B2, “Cyclohexyl acid triazole azoles as LPA antagonists” (BRISTOL-MYERS SQUIBB COMPANY, priority 2017, dated 2022).

Counter-ions that a name gives are not always drawn.

Usually IC50 stands for the concentration at which inhibition is half-maximal.

The target in one assay is T1, human LPA1 (Homo sapiens, UniProt Q92633).
T1 construct: expressed in transfected cells; host or cells: Chinese hamster ovary (CHO) cells
T1 sequence (Q92633 whole entry): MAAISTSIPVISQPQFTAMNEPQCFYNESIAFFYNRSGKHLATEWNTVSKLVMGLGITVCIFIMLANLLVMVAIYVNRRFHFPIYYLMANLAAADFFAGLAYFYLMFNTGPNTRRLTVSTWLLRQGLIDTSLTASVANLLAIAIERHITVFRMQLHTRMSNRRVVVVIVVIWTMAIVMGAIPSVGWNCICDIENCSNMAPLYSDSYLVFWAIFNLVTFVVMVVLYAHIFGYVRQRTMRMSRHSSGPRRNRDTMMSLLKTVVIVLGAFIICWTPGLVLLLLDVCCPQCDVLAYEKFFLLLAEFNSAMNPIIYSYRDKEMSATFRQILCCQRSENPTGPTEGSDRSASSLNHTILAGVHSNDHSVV
Description: LPA1 functional antagonist assay (LPA-induced calcium flux in CHO cells overexpressing human LPA1). The assay is classed as cell-based. The note with it: inhibition of calcium flux induced by 10 nM LPA, CHO cells overexpressing human LPA1; read-out: hLPA1 IC50. Here is the method:
The effectiveness of compounds of the present invention as LPA1 inhibitors can be determined in an LPA1 functional antagonist assay as follows:
Chinese hamster ovary cells overexpressing human LPA1 were plated overnight (15,000 cells/well) in poly-D-lysine coated 384-well microplates (Greiner bio-one, Cat #781946) in DMEM/F12 medium (Gibco, Cat #11039). Following overnight culture, cells were loaded with calcium indicator dye (AAT Bioquest Inc, Cat #34601) for 30 minutes at 37° C. The cells were then equilibrated to room temperature for 30 minutes before the assay. Test compounds solubilized in DMSO were transferred to 384 well non-binding surface plates (Corning, Cat #3575) using the Labcyte Echo acoustic dispense and diluted with assay buffer [IX HBSS with calcium/magnesium (Gibco Cat #14025-092), 20 mM HEPES (Gibco Cat #15630-080) and 0.1% fatty acid free BSA (Sigma Cat #A9205)] to a final concentration of 0.5% DMSO. Diluted compounds were added to the cells by FDSS6000 (Hamamatsu) at final concentrations ranging from 0.08 nM to 5 μM. and were then incubated for 20 min at room temperature at which time LPA (Avanti Polar Lipids Cat #857130C) was added at final concentrations of 10 nM to stimulate the cells. The compound IC50 value was defined as the concentration of test compound which inhibited 50% of the calcium flux induced by LPA alone. IC50 values were determined by fitting data to a 4-parameter logistic equation (GraphPad Prism, San Diego Calif.).
`Cc1nc(-c2nnn(C)c2CNc2noc(C3CC34CC4)n2)ccc1O[C@H]1CCC[C@H](C(=O)O)C1` (some centres unmarked) [Example 205]: the IC50 is 24 nM.
Consider `CCCOc1nnn(Cc2c(-c3ccc(O[C@H]4CCC[C@@H](C(=O)O)C4)c(C)n3)nnn2C)n1` [Example 347, (1R,3S)-3-[(2-methyl-6-{1-methyl-5-[(5-propoxy-2H-1,2,3,4-tetrazol-2-yl)methyl]-1H-1,2,3-triazol-4-yl}pyridin-3-yl)oxy]cyclohexane-1-carboxylic acid], for which the IC50 was determined as 270 nM.
As for `Cc1nc(-c2nnn(C)c2CNc2nnc(C3CC3)s2)ccc1O[C@H]1CCC[C@H](C(=O)O)C1` [Example 7], the IC50 is 2240 nM.
Still for that read-out and setting: for `Cc1nc(-c2nnn(C)c2CNc2noc(CC3CCC3)n2)ccc1O[C@H]1CCC[C@H](C(=O)O)C1` [Example 72] the value was 4 nM; for `Cc1nc(-c2nnn(C)c2Cc2nnc(-c3ccccc3)o2)ccc1O[C@H]1CCC[C@H](C(=O)O)C1` [Example 76], 290 nM.
Take `CCCc1nsc(NCc2c(-c3ccc(O[C@H]4CCC[C@H](C(=O)O)C4)c(C)n3)nnn2C)n1` [Example 104]: the IC50 was found to be 109 nM.
`Cc1c(O[C@H]2CCC[C@H](C(=O)O)C2)ccc(-c2nnn(C)c2Cn2nnc(OCC3CC3)n2)[n+]1[O-]` [Example 349, 3-{[(1S,3S)-3-carboxycyclohexyl]oxy}-6-(5-{[5-(cyclopropyl-methoxy)-2H-1,2,3,4-tetrazol-2-yl]methyl}-1-methyl-1H-1,2,3-triazol-4-yl)-2-methylpyridin-1-ium-1-olate]: the IC50 stood at 304 nM.
Same read-out and setting: for `Cc1nc(-c2nnn(C)c2Cc2nc(-c3ccccc3)no2)ccc1O[C@H]1CCC[C@H](C(=O)O)C1` [Example 245, (1S,3S)-3-((2-methyl-6-(1-methyl-5-((3-phenyl-1,2,4-oxadiazol-5-yl)methyl)-1H-1,2,3-triazol-4-yl)pyridin-3-yl)oxy)cyclohexane-1-carboxylic acid] the value was 79 nM; for `Cc1nc(-c2nnn(C)c2Cn2nncc2C2CC2)ccc1O[C@H]1CCC[C@H](C(=O)O)C1` [Example 268, (1S,3S)-3-((6-(5-((5-cyclopropyl-1H-1,2,3-triazol-1-yl)methyl)-1-methyl-1H-1,2,3-triazol-4-yl)-2-methyl-pyridin-3-yl)oxy)cyclohexane-1-carboxylic acid], 301 nM; for `Cn1nnc(-c2ccc(O[C@H]3CCC[C@H](C(=O)O)C3)cn2)c1CNc1noc(CCC2CCC2)n1` [Example 294, (1S,3S)-3-((6-(5-(((5-(2-cyclobutyl-ethyl)-1,2,4-oxadiazol-3-yl)amino)methyl)-1-methyl-1H-1,2,3-triazol-4-yl)pyridin-3-yl)oxy)cyclohexane-1-carboxylic acid], 33.4 nM.
With `Cc1nc(-c2nnn(C)c2C(O)c2cn(Cc3ccccc3)nn2)ccc1O[C@H]1CCC[C@H](C(=O)O)C1` (some centres unmarked) [Example 78, (1 S,3 S)-3-((6-(5-((1-benzyl-1H-1,2,3-triazol-4-yl)(hydroxy)methyl)-1-methyl-1H-1,2,3-triazol-4-yl)-2-methylpyridin-3-yl)oxy)cyclohexane-1-carboxylic acid], the IC50 worked out at 88 nM.
Take `Cc1nc(-c2nnn(C)c2CNc2nc(C3CCC3)no2)ccc1O[C@H]1CCC[C@H](C(=O)O)C1` [Example 44, (1S,3S)-3-((6-(5-(((3-Cyclobutyl-1,2,4-oxadiazol-5-yl)amino)methyl)-1-methyl-1H-1,2,3-triazol-4-yl)-2-methylpyridin-3-yl)oxy)cyclohexane-1-carboxylic acid, 2 TFA salt]: the IC50 is 105 nM.
The same measure, in the same setting: for `CCCCc1nnc(NCc2c(-c3ccc(O[C@H]4CCC[C@H](C(=O)O)C4)c(C)n3)nnn2C)o1` [Example 53] the value was 297 nM; for `Cc1nc(-c2nnn(C)c2CNc2noc(C3CC(F)(F)C3)n2)ccc1O[C@H]1CCC[C@H](C(=O)O)C1` [Example 153], 46.1 nM; for `Cc1nc(-c2nnn(C)c2CNc2nc(C3CC3)ns2)ccc1O[C@H]1CCC[C@H](C(=O)O)C1` [Example 103], 510 nM.
For the molecule `Cc1nc(-c2nnn(C)c2CNc2noc(C3CCCC3)n2)ccc1O[C@H]1CCC[C@H](C(=O)O)C1` [Example 176], the IC50 was found to be 25.4 nM.
On to `Cc1nc(-c2nnn(C)c2CNc2ncc(-c3ccccn3)o2)ccc1O[C@H]1CCC[C@H](C(=O)O)C1` [Example 20], for which the IC50 came to 99 nM.
`Cc1nc(-c2nnn(C)c2Cn2cc(CC3CC3)nn2)ccc1O[C@H]1CCC[C@H](C(=O)O)C1` [Example 265, (1S,3S)-3-((6-(5-((4-(cyclopropyl-methyl)-1H-1,2,3-triazol-1-yl)methyl)-1-methyl-1H-1,2,3-triazol-4-yl)-2-methylpyridin-3-yl)oxy)cyclohexane-1-carboxylic acid]: the IC50 is 40 nM.
As to `Cc1nc(-c2nnn(C)c2Cn2nnc(OCC3CCC3)n2)ccc1O[C@H]1CCC[C@H](C(=O)O)C1` [Example 332, (1S,3S)-3-{[6-(5-{[5-(cyclobutyl-methoxy)-2H-1,2,3,4-tetrazol-2-yl]methyl}-1-methyl-1H-1,2,3-triazol-4-yl)-2-methylpyridin-3-yl]oxy}cyclohexane-1-carboxylic acid], the IC50 turned out to be 30 nM.
On the same count and under the same terms, for `Cc1nc(-c2nnn(C)c2CNc2cnn(C3CCCCC3)n2)ccc1O[C@H]1CCC[C@H](C(=O)O)C1` [Example 27] the value was 100 nM.
On to `COc1nc(NCc2c(-c3ccc(O[C@H]4CCC[C@H](C(=O)O)C4)c(C)n3)nnn2C)ns1` [Example 4], for which the IC50 is 1120 nM.
Regarding `Cc1nc(-c2nnn(C)c2Cn2nnnc2C2CC2)ccc1O[C@H]1CCC[C@H](C(=O)O)C1` [Example 319, (1S,3S)-3-((6-(5-((5-cyclopropyl-1H-tetrazol-1-yl)methyl)-1-methyl-1H-1,2,3-triazol-4-yl)-2-methylpyridin-3-yl)oxy)cyclo-hexane-1-carboxylic acid], the IC50 came out at 673 nM.
As to `Cc1nc(-c2nnn(C)c2CNc2ncn(C3CCCCC3)n2)ccc1O[C@H]1CCC[C@H](C(=O)O)C1` [Example 36], the IC50 worked out at 147 nM.
Same read-out and setting: with `Cc1nc(-c2nnn(C)c2CNc2noc(CCCC(F)(F)F)n2)ccc1O[C@H]1CCC[C@H](C(=O)O)C1` [Example 177] the figure was 9.1 nM.
Consider `Cc1nc(-c2nnn(C)c2Cn2nncc2CC2CC2)ccc1O[C@H]1CCC[C@H](C(=O)O)C1` [Example 263, (1S,3S)-3-((6-(5-((5-(cyclopropyl-methyl)-1H-1,2,3-triazol-1-yl)-methyl)-1-methyl-1H-1,2,3-triazol-4-yl)-2-methylpyridin-3-yl)oxy)-cyclohexane-1-carboxylic acid], for which the IC50 is 41 nM.
In the case of `CCc1nc(N(C)Cc2c(-c3ccc(O[C@H]4CCC[C@H](C(=O)O)C4)c(C)n3)nnn2C)no1` [Example 224, (1S,3S)-3-((6-(5-(((5-ethyl-1,2,4-oxadiazol-3-yl)(methyl)amino)methyl)-1-methyl-1H-1,2,3-triazol-4-yl)-2-methylpyridin-3-yl)oxy)cyclo-hexane-1-carboxylic acid], the IC50 was determined as 2720 nM.
In the case of `Cc1nc(-c2nnn(C)c2CNc2cnn(C3CCC3)n2)ccc1O[C@H]1CCC[C@H](C(=O)O)C1` [Example 30], the IC50 was 91 nM.
On the same count and under the same terms, for `CCCc1cn(Cc2c(-c3ccc(O[C@H]4CCC[C@H](C(=O)O)C4)c(C)n3)nnn2C)nn1` [Example 269, (1 S,3S)-3-((2-methyl-6-(1-methyl-5-((4-propyl-1H-1,2,3-triazol-1-yl)methyl)-1H-1,2,3-triazol-4-yl)pyridin-3-yl)oxy)cyclohexane-1-carboxylic acid] the value was 76 nM.

Staying with this assay, now noted: read-out: hLPA1 IC50.
Turning to `CCCc1cn(Cc2c(-c3ccc(O[C@H]4CCC[C@H](C(=O)O)C4)c(CC)n3)nnn2C)nn1` [Example 372, (1S,3S)-3-((2-ethyl-6-(1-methyl-5-((4-propyl-1H-1,2,3-triazol-1-yl)methyl)-1H-1,2,3-triazol-4-yl)pyridin-3-yl)oxy)cyclohexane-1-carboxylic acid], the IC50 was 303 nM.
In the case of `Cc1nc(-c2nnn(C)c2Cc2nnn(Cc3ccccc3)n2)ccc1O[C@H]1CCC[C@H](C(=O)O)C1` [Example 402, (1S,3S)-3-[(6-{5-[(2-benzyl-2H-1,2,3,4-tetrazol-5-yl)methyl]-1-methyl-1H-1,2,3-triazol-4-yl}-2-methylpyridin-3-yl)oxy]cyclo-hexane-1-carboxylic acid], the IC50 was 47 nM.
Still for that read-out and setting: with `Cc1nc(-c2nnn(C)c2Cn2nnc(N(Cc3ccccc3)Cc3ccccc3)n2)ccc1O[C@H]1CCC[C@H](C(=O)O)C1` [Example 367, (1S,3S)-3-((6-(5-((5-(dibenzyl-amino)-2H-tetrazol-2-yl)methyl)-1-methyl-1H-1,2,3-triazol-4-yl)-2-methylpyridin-3-yl)oxy)cyclo-hexane-1-carboxylic acid] the figure was 1580 nM; with `CCc1nc(-c2nnn(C)c2CNc2nc(C(C)(C)C)ns2)ccc1O[C@H]1CCC[C@H](C(=O)O)C1` [Example 394, (1S,3S)-3-((6-(5-(((3-(tert-butyl)-1,2,4-thiadiazol-5-yl)amino)methyl)-1-methyl-1H-1,2,3-triazol-4-yl)-2-ethylpyridin-3-yl)oxy)cyclohexane-1-carboxylic acid], 66 nM.
